Reference: patent US20250136581A1, “SUBSTITUTED TRIAZOLE DERIVATIVE, PREPARATION METHOD THEREFOR, PHARMACEUTICAL COMPOSITION THEREOF, AND USE THEREOF” (SHANGHAI SIMR BIOTECHNOLOGY CO., LTD., priority 2021, published 2025)
Where two headings read alike, the source gives them in different places.

What was measured:
[1] = target: human α5β3γ2 receptors (α5-GABAA receptor) (Homo sapiens (Human), UniProt P18507+P31644); test: 3H-flunitrazepam competition binding, human α5β3γ2 GABAA receptor; conditions: HEK293 cell membranes, 1 nM 3H-flunitrazepam
In short: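 HEK293 membranes stably expressing each human receptor subtype ([…]) competed against 1 nM 3H-flunitrazepam in Tris buffer, 1 h at room temperature; flumazenil defined the low-signal control. Eight-point 4-fold test-compound dilutions; GF/C filtration and scintillation counting gave IC50 by curve fitting, converted to Ki.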

[2] = target: α5-GABAA receptor (α5, β3, γ2 subunits) (Homo sapiens (Human), UniProt P18507+P31644); test: Whole cell patch clamp, inverse agonist efficacy in HEK293 cells expressing α5-GABAA receptor; assay type: cell-based; conditions: GABA 0.05 μM, −60 mV; for inhibition at 0.1 µM: HEK293, drug 100 nM, read-out: Compound inverse agonist efficacy %
Excerpt: The inventors used electrophysiological methods to determine the inverse agonist efficacy of the drugs to be tested on the α5-GABAA receptor. The detailed methods are as follows:
Different subunits of the GABAA receptor were co-expressed in the HEK293 cell line to construct a fully functional GABAA receptor. The α, β, and γ subunits are essential to form a complete functional GABAA receptor. In this example, the present disclosure had established the following cell model: α5 subunit (see GenBank Accession No.: NM_000810.3 for protein sequences), β3 subunit (see GenBank Accession No.: NM_000814.5 for protein sequences), and γ2 subunit (see GenBank Accession No.: NM_000816.3 for protein sequences) were co-expressed in the HEK293 cell line, followed by screening the monoclonal stably transfected cell line. This cell line expressed a fully functional α5-GABAA receptor.
The monoclonal stably transfected HEK293 cell line expressing α5-GABAA receptor were cultured in 10 cm culture dishes and passaged when the cells grew to 80% to 90% confluent. During passaging, the culture medium was aspirated first, then 3 mL of DPBS phosphate buffer salt (Gibco™) was added to the culture dishes, and the culture dishes were shaken slightly, and DPBS was aspirated. 1 mL of trypsin (TrypLE Express, Gibco™) was added thereto, and the cells were digested at 37° C. for 1-2 minutes. Then 3 mL of complete medium (DMEM+10% FBS (Gibco™)) was added and the cells at the bottom of the culture dishes were dispersed. The cell suspension was transferred to a 15 mL centrifugal tube (Corning) and then centrifuged at 200 g for 3 minutes. The supernatant was discarded, 4 mL of complete medium was added, and the cells were gently blown and resuspended for use. If cell passaging was performed, the cell suspension was diluted at a ratio of 1:5 or 1:10. If cells for electrophysiological detection were prepared, the cell suspension was diluted in a ratio of 1:12, then added into a 24-well dish (Corning™) in which glass slides were placed and pretreated with Poly-D-Lysine, and the experiment was carried out after the cells adhered to the wall. The cells used for electrophysiology was cultured no more than 48 hours.
Drug concentration setting: The final drug concentration used in drug screening was 100 nM, and the GABA concentration was 0.05 μM. The whole cell patch clamp technique was used in electrophysiological assays, which could refer to the literature (I. Lecker, Y. Yin, D. S. Wang and B. A. Orser, British Journal of Anaesthesia, 2013, 110 (Si), i73-i81). The compositions of the extracellular solution for electrophysiology assay were as follows: 150 mM NaCl, 5 mM KCl, 2.5 mM CaCl2, 1 mM MgCl2, 10 mM HEPES, and 10 mM glucose (pH 7.4); the formulation of the electrode internal fluid for electrophysiology use was as follows: 140 mM CsCl, 11 mM EGTA, 10 mM HEPES, 2 mM CaCl2, 1 mM MgCl2, 4 mM MgATP, and 2 mM TEA (pH 7.3). The signal acquisition used an EPC-10 amplifier and the PatchMaster software (HEKA) or Axon700B amplifier and Clampex software (AXON). The recording electrode was pulled from borosilicate glass, and the electrode resistance was 4 to 6 MQ. The ALA-VC-8PG™ system was used for drug application. Single cell that grew independently was selected for recording. During recording, the cell membrane potential was clamped at −60 mV. During experiment, an extracellular solution was applied outside the cells for about 20 seconds. When the baseline reached to a stable state, the extracellular solution was switched to the GABA solution to induce an inward current. After about 20 to 40 seconds until the current was stable, the solution was switched to a corresponding drug solution to detect the effect of the drug. At last, the solution was switched to the extracellular solution, and the experiment was terminated when the baseline returned to the level before drug application. […]

Row | Structure (SMILES) | Ki ([1]; read-out: α5-GABAAR Ki) [nM] | inhibition at 0.1 µM [2] [%] | Compound inverse agonist efficacy % ([2]; drug 100 nM) [%] | Ki ([1]; α5-GABAAR Ki) [nM]
1 | Cc1nnn(-c2ccc(C(F)F)cc2)c1COc1ccc(N2CC(C(=O)NC3COC3)C2)nn1 [Example 45, 1-(6-((1-(4-(Difluoromethyl)phenyl)-4-methyl-1H-1,2,3-triazol-5-yl)methoxy)pyridazin-3-yl)-N-(oxetan-pyridin-3-yl)azetidine-3-carboxamide] | 3.26 | 50.8 | – | –
2 | Cc1nnn(-c2ccc(C(F)F)cc2)c1COc1ccc(N2CCN[C@@H](C(=O)O)C2)nn1 [Example 28, (R)-4-(6-((1-(4-(Difluoromethyl)phenyl)-4-methyl-1H-1,2,3-triazol-5-yl)methoxy)pyridazin-3-yl)piperazine-2-carboxylic acid] | 4.31 | 47.7 | – | –
3 | Cc1nnn(-c2ccc(C(F)F)cc2)c1COc1ccc(N2CCN3C(=O)CNC(=O)[C@H]3C2)nn1 [Example 65, (R)-8-(6-((1-(4-(Difluoromethyl)phenyl)-4-methyl-1H-1,2,3-triazol-5-yl)methoxy)pyridazin-3-yl)hexahydro-1H-pyrazino[1,2-a]pyrazine-1,4(6H)-dione] | 2.37 | 56.1 | – | –
4 | Cc1nnn(-c2ccc(C(F)F)cc2)c1COc1ccc(N2CCN3CCN(C)C(=O)[C@@H]3C2)nn1 [Example 107, (S)-8-(6-((1-(4-(Difluoromethyl)phenyl)-4-methyl-1H-1,2,3-triazol-5-yl)methoxy)pyridazin-3-yl)-2-methyloctahydro-1H-pyrazino[1,2-a]pyrazin-1-one] | 15.6 | 49.2 | – | –
5 | Cc1nnn(-c2ccc(C(F)F)cc2)c1COc1cnc(N2CCN3CCNC(=O)[C@@H]3C2)cn1 [Example 178, (S)-8-(5-((1-(4-(Difluoromethyl)phenyl)-4-methyl-1H-1,2,3-triazol-5-yl)methoxy)pyrazin-2-yl)hexahydro-2H-pyrazino[1,2-a]pyrazin-1(6H)-one] | 17.2 | 49.7 | – | –
6 | Cc1nnn(-c2ccc(C(F)F)cc2)c1COc1ccc(N2CCN(c3ccncc3)C(=O)C2)nn1 [Example 114, 4-(6-((1-(4-(Difluoromethyl)phenyl)-4-methyl-1H-1,2,3-triazol-5-yl)methoxy)pyridazin-3-yl)-1-(pyridin-pyridin-4-yl)piperazin-2-one] | 2.82 | 51.3 | – | –
7 | Cc1nnn(-c2ccc(C(F)F)cc2)c1COc1ccc(N2CCN(CC(F)(F)F)C(=O)C2)nn1 [Example 62, 4-(6-((1-(4-(Difluoromethyl)phenyl)-4-methyl-1H-1,2,3-triazol-5-yl)methoxy)pyridazin-3-yl)-1-(2,2,2-trifluoroethyl)piperazin-2-one] | 1.18 | 44.6 | – | –
8 | Cc1nnn(-c2ccc(C(F)F)cc2)c1COc1ccc(N2CCN3C4CCCCC4NC(=O)[C@@H]3C2)nn1 (stereo partly drawn) [Example 199, (4aS)-3-(6-((1-(4-(Difluoromethyl)phenyl)-4-methyl-1H-1,2,3-triazol-5-yl)methoxy)pyridazin-3-yl)decahydro-1H-pyrazino[1,2-a]quinoxalin-5(6H)-one] | – | 60.2 | – | 3.17
9 | Cc1nnn(-c2ccc(C(F)F)cc2)c1COc1ccc(N2CCN3CC(CC(C)C)NC(=O)[C@@H]3C2)nn1 (single isomer, unassigned) [Example 209] | 2.04 | – | −52.08 | –
10 | Cc1nnn(-c2ccc(C(F)F)cc2)c1COc1ccc(N2CC(=O)N[C@H](C(=O)O)C2)nn1 [Example 36, (S)-4-(6-((1-(4-(Difluoromethyl)phenyl)-4-methyl-1H-1,2,3-triazol-5-yl)methoxy)pyridazin-3-yl)-6-oxopiperazine-2-carboxylic acid] | 13.6 | 49 | – | –
11 | Cc1nnn(-c2ccc(C(F)F)cc2)c1COc1ccc(N2CC(C(=O)N3CC(C)OC(C)C3)C2)nn1 (centres unmarked) [Example 156, (1-(6-((1-(4-(Difluoromethyl)phenyl)-4-methyl-1H-1,2,3-triazol-5-yl)methoxy)pyridazin-3-yl)azetidin-3-yl)(2,6-dimethylmorpholino)methanone] | 4.13 | 44.3 | – | –

Continued, in another order:

Row | Ki ([1]; read-out: α5-GABAAR Ki) [nM] | inhibition at 0.1 µM [2] [%] | Compound inverse agonist efficacy % ([2]; drug 100 nM) [%] | Structure (SMILES) | Ki ([1]; α5-GABAAR Ki) [nM]
12 | 0.75 | 49.2 | – | Cc1nnn(-c2ccc(C(F)F)cc2)c1COc1ccc(C2=CCCOC2)nn1 [Example 90, 3-((1-(4-(Difluoromethyl)phenyl)-4-methyl-1H-1,2,3-triazol-5-yl)methoxy)-6-(5,6-dihydro-2H-pyran-3-yl)pyridazine] | –
13 | 0.27 | 52 | – | Cc1nnn(-c2ccc(C(F)F)cc2)c1COc1ccc(C2=CC(=O)NCC2)nn1 [Example 57, 4-(6-((1-(4-(Difluoromethyl)phenyl)-4-methyl-1H-1,2,3-triazol-5-yl)methoxy)pyridazin-3-yl)-5,6-dihydropyridin-2(1H)-one] | –
14 | 1.54 | 54.6 | – | Cc1nnn(-c2ccc(C(F)F)cc2)c1COc1ccc(N2CCN(CC3COC3)C(=O)C2)nn1 [Example 100, 4-(6-((1-(4-(Difluoromethyl)phenyl)-4-methyl-1H-1,2,3-triazol-5-yl)methoxy)pyridazin-3-yl)-1-(oxetan-3-ylmethyl)piperazin-2-one] | –
15 | 0.9 | 55.1 | – | Cc1nnn(-c2ccc(C(F)F)cc2)c1COc1ccc(N2CC(=O)N3CCN(C)CC3C2)nn1 (centres unmarked) [Example 69, 2-(6-((1-(4-(Difluoromethyl)phenyl)-4-methyl-1H-1,2,3-triazol-5-yl)methoxy)pyridazin-3-yl)-8-methylhexahydro-1H-pyrazino[1,2-a]pyrazin-4(6H)-one] | –
16 | 1.07 | 42 | – | CC(=O)N1CCN(c2ccc(OCc3c(C)nnn3-c3ccc(C(F)F)cc3)nn2)CC1 [Example 171, 1-(4-(6-((1-(4-(Difluoromethyl)phenyl)-4-methyl-1H-1,2,3-triazol-5-yl)methoxy)pyridazin-3-yl)piperazin-1-yl)ethan-1-one] | –
17 | 1.85 | 46 | – | Cc1nnn(-c2ccc(C(F)F)cc2)c1COc1ccc(N2CCN(C3CCOC3)C(=O)C2)nn1 (centres unmarked) [Example 58, 4-(6-((1-(4-(Difluoromethyl)phenyl)-4-methyl-1H-1,2,3-triazol-5-yl)methoxy)pyridazin-3-yl)-1-(tetrahydrofuran-3-yl)piperazin-2-one] | –
18 | 1.1 | 45.9 | – | Cc1nnn(-c2ccc(C(F)F)cc2)c1COc1ccc(N2CC(C(=O)Nc3ccncc3)C2)nn1 [Example 52, 1-(6-((1-(4-(Difluoromethyl)phenyl)-4-methyl-1H-1,2,3-triazol-5-yl)methoxy)pyridazin-3-yl)-N-(pyridin-4-yl)azetidine-3-carboxamide] | –
19 | 1.1 | 49.7 | – | Cc1nnn(-c2ccc(C(F)F)cc2)c1COc1ccc(N2CC(=O)N3CCN(Cc4ncccn4)CC3C2)nn1 (centres unmarked) [Example 92, 2-(6-((1-(4-(Difluoromethyl)phenyl)-4-methyl-1H-1,2,3-triazol-5-yl)methoxy)pyridazin-3-yl)-8-(pyrimidin-2-ylmethyl)octahydro-4H-pyrazino[1,2-a]pyrazin-4-one] | –
